Read-outs that look alike come from different tables or passages of the source.
How the values were obtained:
BRD4(2) (h) bromodomain = molecular target: T1, BRD4(2) (h) bromodomain (Homo sapiens, UniProt O60885); experiment: Epigenetic binding assay, Bromodomain; settings: for inhibition at 10 µM: read-out: % Inhibition of Control Specific Binding
T1 construct: Bromodomain

PHIP(2) (h) bromodomain = molecular target: T2, PHIP(2) (h) bromodomain (Homo sapiens, UniProt Q8WWQ0); experiment: Epigenetic binding assay, Bromodomain; settings: 10 μM; for inhibition at 10 µM: read-out: % Inhibition of Control Specific Binding
T2 construct: Bromodomain

[1] = molecular target: PKBgamma/AKT3(h) (substrate histone H3 full length) (Homo sapiens, UniProt Q9Y243); experiment: Epigenetic enzyme assay, Kinases; assay type: biochemical; settings: read-out: % Inhibition of Control Values
PRDM9 (h) = PRDM9 (h) (Homo sapiens, UniProt Q9NQV7); experiment: Epigenetic enzyme assay, Methyltransferases (MTs); assay type: biochemical; settings: for inhibition at 10 µM: read-out: % Inhibition of Control Values
TIP60(h) = TIP60(h) (Homo sapiens, UniProt Q92993); experiment: Epigenetic enzyme assay, Histone acetyltransferases (HATs); assay type: biochemical; settings: read-out: % Inhibition of Control Values
Sirtuin 6 (h) = Sirtuin 6 (h) (Homo sapiens, UniProt Q8N6T7); experiment: Epigenetic enzyme assay, Sirtuins; assay type: biochemical; settings: 10 μM; read-out: % Inhibition of Control Values
JMJD2E (h) = molecular target: T3, JMJD2E (h) (Homo sapiens, UniProt B2RXH2); experiment: Epigenetic enzyme assay, Demethylases (KDMs); assay type: biochemical; settings: for inhibition at 10 µM: read-out: % Inhibition of Control Values
T3 sequence (B2RXH2 1-506): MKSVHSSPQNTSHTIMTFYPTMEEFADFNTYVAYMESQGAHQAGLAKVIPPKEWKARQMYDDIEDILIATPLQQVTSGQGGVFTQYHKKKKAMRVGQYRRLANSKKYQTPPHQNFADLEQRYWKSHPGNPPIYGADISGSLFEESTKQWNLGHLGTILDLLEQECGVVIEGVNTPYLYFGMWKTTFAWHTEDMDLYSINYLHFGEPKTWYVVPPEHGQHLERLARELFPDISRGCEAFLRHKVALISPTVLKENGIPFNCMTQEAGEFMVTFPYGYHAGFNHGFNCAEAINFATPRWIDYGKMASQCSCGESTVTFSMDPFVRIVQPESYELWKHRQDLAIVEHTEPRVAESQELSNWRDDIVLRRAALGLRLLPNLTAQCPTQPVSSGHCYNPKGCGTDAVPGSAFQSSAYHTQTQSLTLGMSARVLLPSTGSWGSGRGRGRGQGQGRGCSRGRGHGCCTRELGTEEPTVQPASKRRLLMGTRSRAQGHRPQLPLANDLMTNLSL

[2] = system: Hs695T melanoma cell line; experiment: OncoPanel cell proliferation assay (10-day); assay type: cell-based; settings: Homo sapiens, Hs 695T; for EC50: read-out: Cell Count EC50; for IC50: read-out: Cell Count IC50
IM-9 = experiment: OncoPanel cell proliferation assay (10-day); assay type: cell-based, human; settings: for EC50 / GI50 / IC50: Homo sapiens, IM-9, Myeloma; for EC50: read-out: Cell Count EC50; for GI50: read-out: Cell Count GI50; for IC50: read-out: Cell Count IC50
CBX4 (h) chromodomain = molecular target: T4, CBX4 (h) chromodomain (Homo sapiens, UniProt O00257); experiment: Epigenetic binding assay, Chromodomain; settings: read-out: % Inhibition of Control Specific Binding
T4 construct: Recognition and specificity determinants of the human cbx chromodomains; Eurofins CEREP (France), contract laboratory
T4 sequence (O00257 11-69 limits assumed): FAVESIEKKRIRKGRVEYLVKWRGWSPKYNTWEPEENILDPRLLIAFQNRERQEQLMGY

SETD7 (h) = molecular target: T5, SETD7 (h) (Homo sapiens, UniProt Q8WTS6); experiment: Epigenetic enzyme assay, Methyltransferases (MTs); assay type: biochemical; settings: for inhibition at 10 µM: read-out: % Inhibition of Control Values
T5 sequence (Q8WTS6 1-366): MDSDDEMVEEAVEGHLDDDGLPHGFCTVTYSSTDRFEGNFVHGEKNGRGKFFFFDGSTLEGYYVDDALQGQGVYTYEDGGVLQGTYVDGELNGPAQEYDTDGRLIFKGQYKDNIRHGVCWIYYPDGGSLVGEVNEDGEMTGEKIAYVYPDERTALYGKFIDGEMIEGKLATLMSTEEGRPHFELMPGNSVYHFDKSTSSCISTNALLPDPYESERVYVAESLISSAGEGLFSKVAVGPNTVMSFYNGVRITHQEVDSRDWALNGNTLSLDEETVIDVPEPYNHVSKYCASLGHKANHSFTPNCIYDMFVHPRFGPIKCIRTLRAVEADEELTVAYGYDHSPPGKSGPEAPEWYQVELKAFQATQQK

Lipoxygenase 12-LO = molecular target: T6, Lipoxygenase 12-LO (Homo sapiens, UniProt P18054); experiment: Lipoxygenase 12-LO; assay type: biochemical; settings: assay year 2015, read-out: % Control Response
T6 construct: Human platelets; from tissue; host or cells: human platelets
T6 sequence (P18054 1-663): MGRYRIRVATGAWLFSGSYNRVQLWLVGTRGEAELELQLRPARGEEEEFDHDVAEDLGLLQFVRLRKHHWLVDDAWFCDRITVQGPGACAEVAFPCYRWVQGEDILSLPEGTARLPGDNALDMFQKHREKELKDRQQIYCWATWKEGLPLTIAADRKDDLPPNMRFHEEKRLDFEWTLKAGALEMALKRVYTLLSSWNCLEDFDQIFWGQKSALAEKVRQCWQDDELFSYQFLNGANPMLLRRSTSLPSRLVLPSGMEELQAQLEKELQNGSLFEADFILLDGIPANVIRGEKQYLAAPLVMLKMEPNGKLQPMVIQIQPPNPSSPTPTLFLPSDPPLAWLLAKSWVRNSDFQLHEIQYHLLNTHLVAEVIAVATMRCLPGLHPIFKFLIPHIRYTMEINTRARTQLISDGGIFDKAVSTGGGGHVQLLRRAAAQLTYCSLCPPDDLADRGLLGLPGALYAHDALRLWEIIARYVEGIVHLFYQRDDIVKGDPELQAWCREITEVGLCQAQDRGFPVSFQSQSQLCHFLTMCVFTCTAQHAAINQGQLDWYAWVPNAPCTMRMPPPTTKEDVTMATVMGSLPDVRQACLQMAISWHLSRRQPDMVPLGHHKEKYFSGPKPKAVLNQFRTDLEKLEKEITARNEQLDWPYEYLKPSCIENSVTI
Procedure: The in vitro pharmacological studies were conducted by Eurofins PanLab (Taiwan) using the parameters shown in Table 13 with respect to appropriate literature references.

CYP2C19 = molecular target: T7, CYP2C19 (Homo sapiens, UniProt P33261); experiment: Cytochrome P450 Inhibition (CYP panel); assay type: in vitro ADME; settings: human liver microsomes, probe omeprazole
T7 construct: Human liver microsomes; from tissue; host or cells: human liver microsomes

PHF8(h) = PHF8(h) (Homo sapiens, UniProt Q9UPP1); experiment: Epigenetic enzyme assay, Demethylases (KDMs); assay type: biochemical; settings: read-out: % Inhibition of Control Values
EZH1/EED/SUZ12 (h) = EZH1/EED/SUZ12 (h) (Homo sapiens, UniProt Q92800); experiment: Epigenetic enzyme assay, Methyltransferases (MTs); assay type: biochemical; settings: read-out: % Inhibition of Control Values
[3] = Skin (Melanoma), read-out: Cell Count GI50
[4] = CYP2C19 (omeprazole sub.), Human liver microsomes, read-out: % Inhibition of Control Values

Sirtuin 6 (h), sequence (Q8N6T7 whole entry): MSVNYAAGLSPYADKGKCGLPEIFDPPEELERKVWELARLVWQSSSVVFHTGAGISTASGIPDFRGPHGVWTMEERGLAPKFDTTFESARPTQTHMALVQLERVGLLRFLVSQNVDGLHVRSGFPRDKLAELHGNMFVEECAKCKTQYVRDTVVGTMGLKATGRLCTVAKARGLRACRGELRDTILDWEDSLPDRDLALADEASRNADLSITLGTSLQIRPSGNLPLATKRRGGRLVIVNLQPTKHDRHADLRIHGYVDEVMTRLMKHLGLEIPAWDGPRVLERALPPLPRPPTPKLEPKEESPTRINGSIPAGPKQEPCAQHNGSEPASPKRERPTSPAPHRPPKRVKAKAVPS
TIP60(h), sequence (Q92993 whole entry): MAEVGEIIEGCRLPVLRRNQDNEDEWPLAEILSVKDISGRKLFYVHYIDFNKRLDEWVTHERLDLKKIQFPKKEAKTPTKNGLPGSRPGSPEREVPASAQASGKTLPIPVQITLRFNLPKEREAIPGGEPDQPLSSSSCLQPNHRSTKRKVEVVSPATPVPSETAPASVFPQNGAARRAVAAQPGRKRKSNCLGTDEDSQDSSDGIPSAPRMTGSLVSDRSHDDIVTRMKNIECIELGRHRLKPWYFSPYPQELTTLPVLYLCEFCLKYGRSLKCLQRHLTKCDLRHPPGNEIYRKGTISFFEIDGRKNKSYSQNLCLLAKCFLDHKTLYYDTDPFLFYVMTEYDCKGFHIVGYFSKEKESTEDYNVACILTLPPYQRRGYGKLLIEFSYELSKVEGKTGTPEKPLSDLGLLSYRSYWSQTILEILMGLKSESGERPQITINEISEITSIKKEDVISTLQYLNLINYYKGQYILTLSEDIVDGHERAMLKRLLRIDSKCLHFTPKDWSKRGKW
EZH1/EED/SUZ12 (h), sequence (Q92800 whole entry): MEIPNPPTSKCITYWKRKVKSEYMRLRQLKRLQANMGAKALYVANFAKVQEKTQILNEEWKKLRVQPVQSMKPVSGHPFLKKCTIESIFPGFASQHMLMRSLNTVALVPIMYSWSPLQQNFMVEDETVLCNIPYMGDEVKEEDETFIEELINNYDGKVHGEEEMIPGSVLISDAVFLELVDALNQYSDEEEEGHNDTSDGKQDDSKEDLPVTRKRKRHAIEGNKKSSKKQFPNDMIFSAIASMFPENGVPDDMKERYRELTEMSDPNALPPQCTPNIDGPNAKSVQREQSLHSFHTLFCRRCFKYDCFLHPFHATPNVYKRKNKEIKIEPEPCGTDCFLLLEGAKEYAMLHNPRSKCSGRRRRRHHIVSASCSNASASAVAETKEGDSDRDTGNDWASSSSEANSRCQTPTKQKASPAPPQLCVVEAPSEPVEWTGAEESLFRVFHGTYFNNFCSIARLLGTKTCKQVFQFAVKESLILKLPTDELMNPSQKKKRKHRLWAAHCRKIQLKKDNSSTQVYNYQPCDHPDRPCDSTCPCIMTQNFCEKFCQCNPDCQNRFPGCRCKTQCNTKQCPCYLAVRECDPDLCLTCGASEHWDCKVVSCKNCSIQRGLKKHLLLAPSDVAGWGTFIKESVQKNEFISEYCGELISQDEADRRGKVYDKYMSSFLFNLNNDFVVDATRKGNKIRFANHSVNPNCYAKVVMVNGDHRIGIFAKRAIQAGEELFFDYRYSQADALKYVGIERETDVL
EZH1/EED/SUZ12 (h), sequence (O75530 whole entry partner): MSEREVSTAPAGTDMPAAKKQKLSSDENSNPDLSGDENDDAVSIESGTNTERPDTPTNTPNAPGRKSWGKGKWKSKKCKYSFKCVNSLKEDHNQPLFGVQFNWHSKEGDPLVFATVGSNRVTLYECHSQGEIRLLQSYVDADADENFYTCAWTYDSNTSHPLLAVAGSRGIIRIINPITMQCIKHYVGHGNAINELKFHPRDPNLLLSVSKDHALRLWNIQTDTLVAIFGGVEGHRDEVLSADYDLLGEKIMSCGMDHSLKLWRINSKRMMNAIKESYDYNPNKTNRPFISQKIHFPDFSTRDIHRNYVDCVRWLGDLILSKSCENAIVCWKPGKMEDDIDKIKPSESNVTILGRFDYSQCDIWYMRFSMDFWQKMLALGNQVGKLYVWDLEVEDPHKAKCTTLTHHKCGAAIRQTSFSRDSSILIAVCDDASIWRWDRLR
EZH1/EED/SUZ12 (h), sequence (Q15022 whole entry partner): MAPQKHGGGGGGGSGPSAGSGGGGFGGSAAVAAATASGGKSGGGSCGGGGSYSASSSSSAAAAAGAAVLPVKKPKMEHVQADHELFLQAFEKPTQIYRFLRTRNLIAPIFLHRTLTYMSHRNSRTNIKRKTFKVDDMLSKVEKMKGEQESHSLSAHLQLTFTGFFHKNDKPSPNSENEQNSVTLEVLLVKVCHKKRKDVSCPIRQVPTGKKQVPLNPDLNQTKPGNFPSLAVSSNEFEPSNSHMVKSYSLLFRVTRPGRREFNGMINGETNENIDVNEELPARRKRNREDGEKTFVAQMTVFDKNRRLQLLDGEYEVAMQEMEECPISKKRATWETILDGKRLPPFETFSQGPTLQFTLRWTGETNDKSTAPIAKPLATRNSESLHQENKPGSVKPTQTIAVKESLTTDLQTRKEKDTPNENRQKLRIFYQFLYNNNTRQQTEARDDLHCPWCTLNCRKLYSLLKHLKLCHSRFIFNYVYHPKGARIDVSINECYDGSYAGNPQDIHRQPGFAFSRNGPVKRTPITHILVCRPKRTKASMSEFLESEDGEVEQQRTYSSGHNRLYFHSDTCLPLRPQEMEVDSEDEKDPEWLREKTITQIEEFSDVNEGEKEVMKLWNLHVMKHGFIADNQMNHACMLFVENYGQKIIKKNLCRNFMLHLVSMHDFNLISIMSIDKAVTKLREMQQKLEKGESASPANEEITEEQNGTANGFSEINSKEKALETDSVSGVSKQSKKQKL
PRDM9 (h), sequence (Q9NQV7 whole entry): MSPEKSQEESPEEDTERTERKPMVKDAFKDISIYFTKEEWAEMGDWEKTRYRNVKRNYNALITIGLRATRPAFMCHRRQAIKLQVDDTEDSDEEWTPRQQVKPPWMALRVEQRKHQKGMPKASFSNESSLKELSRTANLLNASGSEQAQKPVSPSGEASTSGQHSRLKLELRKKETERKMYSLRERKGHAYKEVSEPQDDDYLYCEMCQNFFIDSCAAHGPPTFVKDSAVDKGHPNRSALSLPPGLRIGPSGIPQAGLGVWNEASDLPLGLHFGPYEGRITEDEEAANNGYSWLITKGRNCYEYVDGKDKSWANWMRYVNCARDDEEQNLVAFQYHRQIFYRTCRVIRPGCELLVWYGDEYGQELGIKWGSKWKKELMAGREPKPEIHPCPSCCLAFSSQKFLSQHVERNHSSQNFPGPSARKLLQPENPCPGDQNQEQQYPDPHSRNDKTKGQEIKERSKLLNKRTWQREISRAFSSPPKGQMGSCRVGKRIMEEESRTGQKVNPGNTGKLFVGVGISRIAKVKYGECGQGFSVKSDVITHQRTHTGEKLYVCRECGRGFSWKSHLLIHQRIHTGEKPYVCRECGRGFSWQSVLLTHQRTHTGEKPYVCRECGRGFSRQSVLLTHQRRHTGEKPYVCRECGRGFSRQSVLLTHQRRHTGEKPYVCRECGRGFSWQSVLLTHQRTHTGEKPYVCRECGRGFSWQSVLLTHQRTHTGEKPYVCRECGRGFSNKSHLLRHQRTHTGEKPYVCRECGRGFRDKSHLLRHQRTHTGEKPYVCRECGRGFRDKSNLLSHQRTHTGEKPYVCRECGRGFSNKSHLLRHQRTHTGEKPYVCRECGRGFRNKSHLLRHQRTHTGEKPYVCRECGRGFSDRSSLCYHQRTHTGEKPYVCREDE
PHF8(h), sequence (Q9UPP1 whole entry): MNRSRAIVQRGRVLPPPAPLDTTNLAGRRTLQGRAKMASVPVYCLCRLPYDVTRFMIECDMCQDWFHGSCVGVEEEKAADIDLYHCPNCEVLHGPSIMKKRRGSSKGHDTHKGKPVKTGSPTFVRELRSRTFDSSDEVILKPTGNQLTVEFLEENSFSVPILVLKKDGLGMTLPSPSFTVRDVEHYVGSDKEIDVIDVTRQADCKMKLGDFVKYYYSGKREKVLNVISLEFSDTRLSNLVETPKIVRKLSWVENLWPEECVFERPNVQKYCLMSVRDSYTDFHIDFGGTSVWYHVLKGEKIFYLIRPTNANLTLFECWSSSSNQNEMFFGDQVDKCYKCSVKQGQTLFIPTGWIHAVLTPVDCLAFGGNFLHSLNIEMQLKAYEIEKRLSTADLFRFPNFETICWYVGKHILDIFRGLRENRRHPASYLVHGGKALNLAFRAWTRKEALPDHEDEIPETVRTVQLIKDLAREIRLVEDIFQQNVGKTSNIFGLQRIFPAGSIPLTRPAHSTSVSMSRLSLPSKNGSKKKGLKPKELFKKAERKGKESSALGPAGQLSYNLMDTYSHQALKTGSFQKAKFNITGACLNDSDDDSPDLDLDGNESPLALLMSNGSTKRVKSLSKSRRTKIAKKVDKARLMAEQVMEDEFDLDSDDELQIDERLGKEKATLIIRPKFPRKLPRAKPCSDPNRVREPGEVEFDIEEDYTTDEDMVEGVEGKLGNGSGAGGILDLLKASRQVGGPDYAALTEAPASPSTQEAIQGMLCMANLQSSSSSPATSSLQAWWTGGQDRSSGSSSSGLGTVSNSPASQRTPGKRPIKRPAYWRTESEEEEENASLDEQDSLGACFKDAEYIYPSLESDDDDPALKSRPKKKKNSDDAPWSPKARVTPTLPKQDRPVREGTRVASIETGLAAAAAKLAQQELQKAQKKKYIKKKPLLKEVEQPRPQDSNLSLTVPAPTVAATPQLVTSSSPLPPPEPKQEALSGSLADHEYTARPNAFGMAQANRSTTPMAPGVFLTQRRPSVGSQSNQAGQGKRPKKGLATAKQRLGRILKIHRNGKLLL

Compound	inhibition at 10 µM (BRD4(2) (h) bromodomain; 10 μM)	inhibition at 10 µM (PHIP(2) (h) bromodomain)	inhibition at 10 µM [1]	inhibition at 10 µM (PRDM9 (h))	inhibition at 10 µM (TIP60(h))	inhibition at 10 µM (Sirtuin 6 (h))	inhibition at 10 µM (JMJD2E (h); 10 μM)	EC50 ([2]; Skin (Melanoma))	GI50 [2, 3]	IC50 ([2]; Skin (Melanoma))	EC50 (IM-9)	GI50 (IM-9)	IC50 (IM-9)	inhibition at 10 µM (CBX4 (h) chromodomain)	inhibition at 10 µM (SETD7 (h))	remaining activity at 10 µM (Lipoxygenase 12-LO)	inhibition at 1 µM (CYP2C19; read-out: % inhibition)	inhibition at 1 µM (CYP2C19; [4])	inhibition at 10 µM (CYP2C19; [4])	inhibition at 10 µM (PHF8(h))	further results
CC(C)=CCC[C@H](CO)[C@@H]1CC[C@@H](C)c2c1cc(C)c(O)c2O [Compound 1, 7,8,18-trihydroxyserrulat-14-ene]	76%	61%	5%	9%	20%	2%	65%	1.18 µM	1.16 µM	1.27 µM	0.42 µM	0.42 µM	0.42 µM	25%	12%	60%	25 to 37%	37%	90%	36%	% Inhibition of Control Specific Binding (BRD4(2) (h) bromodomain; 10 μM): significant inhibitory activity; IC50 (BRD4(2) (h) bromodomain; Table 9, inhibition/concentration-response curve): 5.6 µM; % Inhibition of Control Specific Binding (PHIP(2) (h) bromodomain): significant inhibitory activity; % Inhibition of Control Values (JMJD2E (h); 10 μM): significant inhibitory activity; IC50 (JMJD2E (h); Table 11, inhibition/concentration-response curve): 4.7 µM; GI50 ([2]; calculated on a weight-weight basis, read-out: GI50): 0.37 µg/mL; Relative cell count (%) Mean (IM-9; IM-9, 3.00E+00 microM): 0.1%; Relative cell count (%) Mean (IM-9; IM-9, 3.00E+01 microM): 0.0%; Relative cell count (%) Mean (IM-9; IM-9, 3.01E−01 microM): 97.5%; Relative cell count (%) Mean (IM-9; IM-9, 3.01E−02 microM): 107.3%; Relative cell count (%) Mean (IM-9; IM-9, 3.02E−03 microM): 102.8%; Relative cell count (%) Mean (IM-9; IM-9, 9.49E+00 microM): 0.1%; Relative cell count (%) Mean (IM-9; IM-9, 9.51E−01 microM): 0.0%; Relative cell count (%) Mean (IM-9; IM-9, 9.52E−02 microM): 97.7%; Relative cell count (%) Mean (IM-9; IM-9, 9.53E−03 microM): 103.1%; Relative cell count (%) Mean (IM-9; IM-9, 9.55E−04 microM): 94.9%; inhibition at 10 µM (EZH1/EED/SUZ12 (h)): -1%
CC(C)=CCC[C@@H]1C(O)Oc2c(C)cc(O)c3c2[C@H]1CC[C@H]3C (stereo partly drawn) [Compound 2, 5,18-epoxyserrulat-14-en-8,18-diol]	16%	30%	-7%	5%	10%	6%	10%	9.07 µM	8.99 µM	9.48 µM	3.92 µM	3.92 µM	3.92 µM	29%	16%	40%	25 to 37%	34%	73%	-11%	inhibition at 10 µM (EZH1/EED/SUZ12 (h)): 3%
CC(C)=CCC[C@@H]1COc2c(C)cc(O)c3c2[C@H]1CC[C@H]3C [Compound 3, 5,18-epoxy-8-hydroxyserrulat-14-ene]	13%	23%	3%	4%	-3%	-4%	6%							40%	-2%	29%				13%	inhibition at 10 µM (EZH1/EED/SUZ12 (h)): -12%
CC(C)=CCC[C@H](C)[C@@H]1CC[C@@H](C)c2c1cc(C)c(O)c2O [Compound 4, 7,8-dihydroxyserrulat-14-ene]								5 µM	4.02 µM	5.18 µM	6.71 µM	6.71 µM	6.71 µM				25 to 37%	25%	78%		
Nc1ncnc2c1ncn2[C@@H]1O[C@H](CSCC[C@H](N)C(=O)O)[C@@H](O)[C@H]1O [SAH]																					IC50 (PRDM9 (h); read-out: Reference IC50): 370 µM; IC50 (SETD7 (h); read-out: Reference IC50): 24 µM

Reference: patent publication US11331299B2, “Medicinal use of serrulatane diterpenes” (The University of Sydney, priority 2016, dated 2022)
